“Also recorded” adds a separate entry of the source.
Key:
[1] = test system: Sprague-Dawley (CD) rats; assay: Rat tail-flick latency test (heat source, 15 second maximum); type: in vivo; details: for antinociceptive activity (tail-flick latency), administered alone: single agent: morphine 1.2 mg/kg s.c. or ibudilast 50 mg/kg po
Procedure: Male Sprague-Dawley (CD) rats were acclimated to a room temperature of 79° F. to semi-confined conditions on a heated glass surface (79° F.). On the first day, rats were acclimated to a glass surface for 20-30 minutes. Rats were in chambers made of plexiglass and could move freely in either direction. No stimulus was given on day 1. On day 2, rats were acclimated for 5 minutes, and a high intensity beam of light was directed at each rat tail approximately 4 cm from the tip. The time it took for a rat tail to withdraw from the heat source was recorded as the baseline latent period for tail flick. Three trials were done with 5 minutes between trials for each rat. The light source was moved for the 2nd and 3rd trials one cm caudal and rostral of the original trial to avoid tissue damage. Animals were dosed orally with ibudilast (50 mg/kg in vehicle (10% HCO60+10% PEG in sterile water) and/or 1.2 mg/kg morphine s.c. formulated in saline for injection. Dose volumes were 1 ml/kg for s.c. administrations (i.e. opioid) and 10 ml/kg for p.o. administrations. Animals were dosed and returned to their cages until 5 minutes before each hourly time point, when they were returned to the glass surface and stimulated with the heat source (3 trials/time point). The ibudilast vehicle was also shown not to have analgesic activity and performed like the saline control. Studies were performed at Avigen Inc. under IACUC regulations.

[2] = test system: Sprague-Dawley rats; assay: Modified Hargreaves test (high and low intensity), tail and hindpaw withdrawal to heat stimuli; type: in vivo, rat
Procedure: Pathogen-free adult male Sprague-Dawley rats (300-375 g; Harlan Labs, Madison, Wis.) were used in all experiments. Rats were housed in temperature (23±3° C.) and light (12 h: 12 h light:dark cycle; lights on at 0700) controlled rooms with standard rodent chow and water available ad libitum. All procedures were approved by the Institutional Animal Care and Use Committee of the University of Colorado at Boulder. Each study represents an n=6 per group.
Morphine sulfate and oxycodone hydrochloride were purchased from Sigma (St. Louis, Mo., USA). Morphine and oxycodone were administered subcutaneously at 4 mg/kg in a dose volume of 1 ml/kg in sterile injection normal saline. Ibudilast was supplied by Avigen (Alameda, Calif., USA). Ibudilast was administered intraperitoneally at 7.5 mg/kg in a dose volume of 2.5 ml/kg in 35% PEG: 65% injection saline. Morphine and oxycodone doses reported are as free base concentrations.
Hargreaves tests for analgesia and hyperalgesia. Rats received at least three 60 min habituations to the test environment prior to behavioral testing. Thresholds for behavioral response to heat stimuli applied to the plantar surface of each hindpaw and tail were assessed using a modified Hargreaves test (Hargreaves et al., 1988). All testing was conducted blind with respect to group assignment. Briefly, baseline withdrawal values were calculated from an average of 2 consecutive withdrawal latencies of the tail and the left and the right hindpaws, measured at 15-min intervals. Latencies for the high intensity stimulus at baseline ranged from 2 to 3 s, and a cut-off time of 10 s was imposed to avoid tissue damage. Latencies for the low intensity stimulus at baseline ranged from 6 to 7 s, and a cut-off time of 20 s was imposed to avoid tissue damage. The order of paw and tail testing varied randomly.
The analgesic responses were calculated as the % of maximal possible effect
(Carmody, 1995). For high intensity Hargreaves, a cut off of 10 s was used. For low intensity Hargreaves, a 20 s cut off was employed. Since there is no unilateral paw effect expected (or observed) left and right withdrawal latencies were averaged. Statistical significance for analysis of time courses was assessed using a two-way repeated ANOVA with Bonferroni post hoc test and compared the analgesic responses of active treatments versus their vehicle controls. Area under the curves were analyzed with a students t-test. Significance was set at P<0.05. Calculations were conducted with Excel 2003 SP2 (Microsoft, Redmond, Calif., USA) & Prism 4.03 (GraphPad, San Diego, Calif., USA).
Following baseline withdrawal latency assessments (−45 min), animals received ibudilast or vehicle and were tested again 10 min later to determine if ibudilast or vehicle had any effect on withdrawal latencies. At this time (time 0), the animals received a subcutaneous saline injection (1 ml/kg) to control for conditions in Experiment 2 (see below). Animals were then tested every 10 minutes for 80 min alternating high and low intensity Hargreaves tests.
Following baseline withdrawal latency assessments (−45 min), animals received ibudilast or vehicle (−30 min) and were tested again at −10 min. At time 0, animals received a subcutaneous morphine injection (4 mg/kg in a dose volume of 1 ml/kg in injection saline) and were tested every 10 minutes for 230 min alternating high and low intensity Hargreaves tests. […]

## CN1CC[C@]23c4c5ccc(O)c4O[C@H]2[C@@H](O)C=C[C@H]3[C@H]1C5 [morphine]
[1]
  antinociceptive activity (tail-flick latency), administered alone: weak antinociceptive activity

## CC(C)C(=O)c1c(C(C)C)nn2ccccc12 [ibudilast, 3-isobutyryl-2-isopropylpyrazolo[1,5-a]pyridine]
[1]; ibudilast 50 mg/kg po + morphine 1.2 mg/kg s.c. concurrently, vs either therapeutic alone
  tail-flick latency, co-administration of oral ibudilast and s.c. morphine: substantial, greater-than-additive increase; also recorded: potentiates morphine-induced analgesia
[1]
  antinociceptive activity (tail-flick latency), administered alone: weak antinociceptive activity
[2]; ibudilast 7.5 mg/kg i.p. 30 min prior to morphine 4 mg/kg s.c., high and low intensity Hargreaves, vs vehicle + morphine
  enhancement of morphine analgesia, tail and paw withdrawal latencies: significantly enhanced; also recorded: potentiated analgesia
[2]; ibudilast 7.5 mg/kg i.p. 30 min prior to oxycodone 4 mg/kg s.c., high and low intensity Hargreaves, vs vehicle + oxycodone
  enhancement of oxycodone analgesia, tail and paw withdrawal latencies: significantly enhanced; also recorded: potentiated analgesia
[2]; ibudilast 7.5 mg/kg i.p. + morphine 4 mg/kg s.c., tail and hind paw, vs vehicle + morphine
  area under the analgesia curve, co-administration with morphine: significant increase in analgesia
[2]; ibudilast 7.5 mg/kg i.p. + oxycodone 4 mg/kg s.c., tail and hind paw, vs vehicle + oxycodone
  area under the analgesia curve, co-administration with oxycodone: significant increase in analgesia
[2]; ibudilast 7.5 mg/kg i.p. alone (followed by s.c. saline), high and low intensity Hargreaves, vs vehicle 35% PEG
  tail and paw withdrawal latencies (% maximal possible effect), ibudilast alone: no significant influence; also recorded: little to no effect
